Data published in patent US9884849B2, “Fluorinated benzofuranyl-pyrimidine derivatives containing a sulfoximine group” (Bayer Pharma Aktiengesellschaft, priority 2014, dated 2018).
Like-named read-outs stand apart in the source and are kept apart here.

Columns and labels:
[1] = system: Caco-2 cells; assay: Proliferation assay Caco-2 (Method 3); format: cell-based, human; conditions: Caco-2, 4 days, crystal violet, read-out: Inhibition of Caco-2 cell proliferation IC50
Protocol: (§1) Cultivated tumour cells (HeLa, human cervical tumour cells, ATCC CCL-2; NCI-H460, human non-small cell lung carcinoma cells, ATCC HTB-177; A2780, human ovarian carcinoma cells, ECACC #93112519; DU 145, hormone-independent human prostate carcinoma cells, ATCC HTB-81; HeLa-MaTu-ADR, multidrug-resistant human cervical carcinoma cells, EPO-GmbH Berlin; Caco-2, human colorectal carcinoma cells, ATCC HTB-37; B16F10, mouse melanoma cells, ATCC CRL-6475) were plated at a density of 5,000 cells/well (DU145, HeLa-MaTu-ADR), 3,000 cells/well (NCI-H460, HeLa), 2,500 cells/well (A2780), 1,500 cells/well (Caco-2), or 1,000 cells/well (B16F10) in a 96-well multititer plate in 200 μL of their respective growth medium supplemented 10% fetal calf serum. After 24 hours, the cells of one plate (zero-point plate) were stained with crystal violet (see below), while the medium of the other plates was replaced by fresh culture medium (200 μl), to which the test substances were added in various concentrations (0 μM, as well as in the range of 0.001-10 μM; the final concentration of the solvent dimethyl sulfoxide was 0.5%). The cells were incubated for 4 days in the presence of test substances. Cell proliferation was determined by staining the cells with crystal violet: the cells were fixed by adding 20 μl/measuring point of an 11% glutaric aldehyde solution for 15 minutes at room temperature. After three washing cycles of the fixed cells with water, the plates were dried at room temperature. The cells were stained by adding 100 μl/measuring point of a 0.1% crystal violet solution (pH 3.0). After three washing cycles of the stained cells with water, the plates were dried at room temperature. The dye was dissolved by adding 100 μl/measuring point of a 10% acetic acid solution. The extinction was determined by photometry at a wavelength of 595 nm. The change of cell number, in percent, was calculated by normalization of the measured values to the extinction values of the zero-point plate (=0%) and the extinction of the untreated (0 μm) cells (=100%). The IC50 values (inhibitory concentration at 50% of maximal effect) were determined by means of a 4 parameter fit.

[2] = system: NCI-H460 cells; assay: Proliferation assay NCI-H460 (Method 3); format: cell-based, human; conditions: NCI-H460, 4 days, crystal violet, read-out: Inhibition of NCI-H460 cell proliferation IC50
Protocol: as §1

[3] = system: B16F10 cells; assay: Proliferation assay B16F10 (Method 3); format: cell-based, mouse; conditions: 4 days, crystal violet, read-out: Inhibition of Bc6F10 cell proliferation IC50
Protocol: as §1

[4] = molecular target: T1, CDK9/CycT1 (Homo sapiens, UniProt P50750); assay: CDK9/CycT1 high ATP kinase assay (Method 1b, TR-FRET); format: biochemical; conditions: 2 mM ATP; for Selectivity high ATP CDK9 over high ATP CDK2: IC50 (high ATP CDK2)/IC50 (high ATP CDK9): Methods 1b. and 2b.
T1 construct: Recombinant full-length His-tagged human CDK9 and CycT1; His; purchased Invitrogen PV4131; host or cells: insect cells
Protocol: 1b. CDK9/CycT1 High ATP Kinase Assay
CDK9/CycT1-Inhibitory Activity of Compounds of the Present Invention at a High ATP Concentration after Preincubation of Enzyme and Test Compounds was Quantified Employing the CDK9/CycT1 TR-FRET Assay as Described in the Following Paragraphs.
Recombinant full-length His-tagged human CDK9 and CycT1, expressed in insect cells and purified by Ni-NTA affinity chromatography, were purchase from Invitrogen (Cat. No PV4131). As substrate for the kinase reaction biotinylated peptide biotin-Ttds-YISPLKSPYKISEG (C-terminus in amid form) was used which can be purchased e.g. form the company JERINI peptide technologies (Berlin, Germany). For the assay 50 nl of a 100 fold concentrated solution of the test compound in DMSO was pipetted into a black low volume 384 well microtiter plate (Greiner Bio-One, Frickenhausen, Germany), 2 μl of a solution of CDK9/CycT1 in aqueous assay buffer [50 mM Tris/HCl pH 8.0, 10 mM MgCl2, 1.0 mM dithiothreitol, 0.1 mM sodium ortho-vanadate, 0.01% (v/v) Nonidet-P40 (Sigma)] were added and the mixture was incubated for 15 min at 22° C. to allow pre-binding of the test compounds to the enzyme before the start of the kinase reaction. Then the kinase reaction was started by the addition of 3 μl of a solution of adenosine-tri-phosphate (ATP, 3.3 mM=>final conc. in the 5 μl assay volume is 2 mM) and substrate (1.67 μM=>final conc. in the 5 μl assay volume is 1 μM) in assay buffer and the resulting mixture was incubated for a reaction time of 25 min at 22° C. The concentration of CDK9/CycT1 was adjusted depending of the activity of the enzyme lot and was chosen appropriate to have the assay in the linear range, typical concentrations were in the range of 0.5 μg/mL. The reaction was stopped by the addition of 5 μl of a solution of TR-FRET detection reagents (0.2 μM streptavidine-XL665 [Cisbio Bioassays, Codolet, France] and 1 nM anti-RB(pSer807/pSer811)-antibody from BD Pharmingen [#558389] and 1.2 nM LANCE EU-W1024 labeled anti-mouse IgG antibody [Perkin-Elmer, product no. AD0077]) in an aqueous EDTA-solution (100 mM EDTA, 0.2% (w/v) bovine serum albumin in 100 mM HEPES/NaOH pH 7.0).
The resulting mixture was incubated 1 h at 22° C. to allow the formation of complex between the phosphorylated biotinylated peptide and the detection reagents. Subsequently the amount of phosphorylated substrate was evaluated by measurement of the resonance energy transfer from the Eu-chelate to the streptavidine-XL. Therefore, the fluorescence emissions at 620 nm and 665 nm after excitation at 350 nm was measured in a HTRF reader, e.g. a Rubystar (BMG Labtechnologies, Offenburg, Germany) or a Viewlux (Perkin-Elmer). The ratio of the emissions at 665 nm and at […] was taken as the measure for the amount of phosphorylated substrate. The data were normalised (enzyme reaction without inhibitor=0% inhibition, all other assay components but no enzyme=100% inhibition).

[5] = system: A2780 cells; assay: Proliferation assay A2780 (Method 3); format: cell-based, human; conditions: A2780, 4 days, crystal violet, read-out: Inhibition of A2780 cell proliferation IC50
Protocol: as §1

[6] = system: HeLa-MaTu-ADR cells; assay: Proliferation assay HeLa-MaTu-ADR (Method 3); format: cell-based, human; conditions: 4 days, crystal violet, read-out: Inhibition of HeLa-MaTu-ADR cell proliferation IC50
Protocol: as §1

T1 sequence (P50750 whole entry): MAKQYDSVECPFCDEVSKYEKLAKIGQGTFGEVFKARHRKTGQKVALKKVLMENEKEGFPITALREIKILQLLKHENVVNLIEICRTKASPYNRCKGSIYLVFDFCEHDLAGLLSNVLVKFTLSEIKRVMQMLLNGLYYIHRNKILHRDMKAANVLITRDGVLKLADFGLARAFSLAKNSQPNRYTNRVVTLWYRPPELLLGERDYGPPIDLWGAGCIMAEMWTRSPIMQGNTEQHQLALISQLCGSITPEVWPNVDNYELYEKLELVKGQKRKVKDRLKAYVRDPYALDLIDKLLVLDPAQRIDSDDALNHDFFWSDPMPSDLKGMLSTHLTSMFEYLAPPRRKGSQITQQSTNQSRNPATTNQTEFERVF
T1 sequence (O60563 whole entry partner): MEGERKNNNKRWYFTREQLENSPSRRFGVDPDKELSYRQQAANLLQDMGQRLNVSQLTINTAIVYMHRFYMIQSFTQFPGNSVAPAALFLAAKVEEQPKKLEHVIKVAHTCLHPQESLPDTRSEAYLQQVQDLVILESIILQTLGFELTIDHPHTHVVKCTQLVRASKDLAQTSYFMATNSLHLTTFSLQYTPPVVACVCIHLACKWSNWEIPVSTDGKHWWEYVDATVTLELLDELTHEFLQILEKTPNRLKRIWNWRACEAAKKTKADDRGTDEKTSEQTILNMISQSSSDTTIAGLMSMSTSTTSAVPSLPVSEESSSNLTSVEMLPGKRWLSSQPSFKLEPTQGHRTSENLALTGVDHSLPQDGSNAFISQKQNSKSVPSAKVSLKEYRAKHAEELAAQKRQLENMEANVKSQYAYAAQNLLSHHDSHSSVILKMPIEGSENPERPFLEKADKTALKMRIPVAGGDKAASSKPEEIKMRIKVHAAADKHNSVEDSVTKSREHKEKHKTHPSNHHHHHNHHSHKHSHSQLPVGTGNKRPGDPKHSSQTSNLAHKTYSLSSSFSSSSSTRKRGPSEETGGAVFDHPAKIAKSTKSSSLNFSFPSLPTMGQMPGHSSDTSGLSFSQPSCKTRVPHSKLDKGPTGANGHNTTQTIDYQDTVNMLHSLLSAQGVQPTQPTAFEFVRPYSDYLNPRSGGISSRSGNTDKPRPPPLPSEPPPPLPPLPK

Row | IC50 ([1]; Homo sapiens, Caco-2, 96 h) [nM] | IC50 ([2]; Homo sapiens, NCI-H460, 96 h) [nM] | IC50 ([3]; Mus musculus, B16-F10, 96 h) [nM] | IC50 [4] [nM] | Selectivity high ATP CDK9 over high ATP CDK2: IC50 (high ATP CDK2)/IC50 (high ATP CDK9) [4] | IC50 ([5]; Homo sapiens, A2780, 96 h) [nM] | IC50 ([6]; Homo sapiens, 96 h) [nM] | IC50 [1] [nM] | IC50 [2] [nM] | IC50 [3] [nM] | IC50 [5] [nM] | IC50 [6] [nM] | SMILES
1 | 110 | 189 | 170 | 0.9 | 622 | 46 | 134 | – | – | – | – | – | CS(=O)(Cc1cccc(Nc2ncc(F)c(-c3ccc(F)c4ccoc34)n2)c1)=NC#N (racemic) [Example 1, (rac)-[(3-{[5-Fluoro-4-(4-fluoro-1-benzofuran-7-yl)pyrimidin-2-yl]amino}benzyl)(methyl)oxido-λ^6-sulfanylidene]cyanamide]
2 | 141 | 181 | 211 | 22 | 23 | 53 | 143 | – | – | – | – | – | CS(=N)(=O)Cc1cccc(Nc2ncc(F)c(-c3ccc(F)c4ccoc34)n2)c1 (racemic) [Example 4, (rac)-5-Fluoro-4-(4-fluoro-1-benzofuran-7-yl)-N-{3-[(S-methylsulfonimidoyl)-methyl]phenyl}-pyrimidin-2-amine]
3 | 75 | 104 | 64 | 1.9 | 343 | 23 | 60 | – | – | – | – | – | CS(=O)(Cc1cc(F)cc(Nc2ncc(F)c(-c3ccc(F)c4ccoc34)n2)c1)=NC#N (racemic) [Example 7, (rac)-[(3-Fluoro-5-{[5-fluoro-4-(4-fluoro-1-benzofuran-7-yl)pyrimidin-2-yl]amino}benzyl)(methyl)-oxido-λ^6-sulfanylidene]cyanamide]
4 | 104 | 112 | 58 | 3.2 | 563 | 37 | – | – | – | – | – | – | CS(=N)(=O)Cc1cc(F)cc(Nc2ncc(F)c(-c3ccc(F)c4ccoc34)n2)c1 (racemic) [Example 10, (rac)-5-Fluoro-4-(4-fluoro-1-benzofuran-7-yl)-N-{3-fluoro-5-[(S-methylsulfonimidoyl)-methyl]-phenyl}-pyrimidin-2-amine]
5 | 40 | 118 | 49 | 0.88 | 1364 | 34 | 37 | – | – | – | – | – | Cc1cc(CS(C)(=O)=NC#N)cc(Nc2ncc(F)c(-c3ccc(F)c4ccoc34)n2)c1 (racemic) [Example 13, (rac)-[(3-{[5-Fluoro-4-(4-fluoro-1-benzofuran-7-yl)pyrimidin-2-yl]amino}-5-methylbenzyl)-(methyl)oxido-λ^6-sulfanylidene]cyanamide]
6 | 60 | 120 | 82 | 6.4 | 77 | 35 | 41 | – | – | – | – | – | Cc1cc(CS(C)(=N)=O)cc(Nc2ncc(F)c(-c3ccc(F)c4ccoc34)n2)c1 (racemic) [Example 16, (rac)-5-Fluoro-4-(4-fluoro-1-benzofuran-7-yl)-N-{3-methyl-5-[(S-methylsulfonimidoyl)-methyl]phenyl}pyrimidin-2-amine]
7 | 111 | 192 | 118 | 7.4 | 197 | 98 | 98 | – | – | – | – | – | CS(=O)(Cc1cc(Nc2ncc(F)c(-c3ccc(F)c4ccoc34)n2)cc(S(F)(F)(F)(F)F)c1)=NC#N (racemic) [Example 17, (rac)-{[3-{[5-fluoro-4-(4-fluoro-1-benzofuran-7-yl)pyrimidin-2-yl]amino}-5-(pentafluoro-λ^6-sulfanyl)benzyl](methyl)oxido-λ^6-sulfanylidene}cyanamide]
8 | 152 | 136 | 168 | 4.4 | 350 | 34 | 116 | – | – | – | – | – | CS(=N)(=O)Cc1cc(Nc2ncc(F)c(-c3ccc(F)c4ccoc34)n2)cc(S(F)(F)(F)(F)F)c1 (racemic) [Example 18, (rac)-5-Fluoro-4-(4-fluoro-1-benzofuran-7-yl)-N-{3-[(S-methylsulfonimidoyl)methyl]-5-(pentafluoro-λ^6-sulfanyl)phenyl}pyrimidin-2-amine]
9 | – | – | – | 1.1 | 321 | – | – | 87 | 117 | 75 | 55 | 87 | CS(=O)(Cc1cccc(Nc2ncc(F)c(-c3ccc(F)c4ccoc34)n2)c1)=NC#N (single isomer, unassigned) [Example 2, [(3-{[5-Fluoro-4-(4-fluoro-1-benzofuran-7-yl)pyrimidin-2-yl]amino}benzyl)(methyl)oxido-λ^6-sulfanylidene]cyanamide]
10 | 144 | 188 | 136 | 1 | 475 | 67 | 118 | – | – | – | – | – | CS(=O)(Cc1cccc(Nc2ncc(F)c(-c3ccc(F)c4ccoc34)n2)c1)=NC#N (single isomer, unassigned) [Example 3, [(3-{[5-Fluoro-4-(4-fluoro-1-benzofuran-7-yl)pyrimidin-2-yl]amino}benzyl)(methyl)oxido-λ^6-sulfanylidene]cyanamide]
